From ChEMBL document CHEMBL1201862, “PubChem BioAssay data set” (2004)
Activity calls are given as the source filed them.

Key:
[1] = A Cell Based Secondary Assay To Explore Cytotoxicity of Compounds that Sensitize Mycobacterium Tuberculosis to Beta-Lactam Antibiotics.; type: functional
[2] = inhibitors of Bluetongue virus cytopathic effect, confirmation, arbovirus, BSR cells (AID 1250); type: functional;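 also: protection from viral cytopathic effect measured as cell viability by ATP luminescence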
Cytochrome P450 3A4 = Cytochrome P450 3A4 (Homo sapiens, UniProt P08684); settings: Potency;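 also: confirmatory qHTS run detecting inhibitors and substrates of CYP3A4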
Sequence of Cytochrome P450 3A4 (P08684 whole entry): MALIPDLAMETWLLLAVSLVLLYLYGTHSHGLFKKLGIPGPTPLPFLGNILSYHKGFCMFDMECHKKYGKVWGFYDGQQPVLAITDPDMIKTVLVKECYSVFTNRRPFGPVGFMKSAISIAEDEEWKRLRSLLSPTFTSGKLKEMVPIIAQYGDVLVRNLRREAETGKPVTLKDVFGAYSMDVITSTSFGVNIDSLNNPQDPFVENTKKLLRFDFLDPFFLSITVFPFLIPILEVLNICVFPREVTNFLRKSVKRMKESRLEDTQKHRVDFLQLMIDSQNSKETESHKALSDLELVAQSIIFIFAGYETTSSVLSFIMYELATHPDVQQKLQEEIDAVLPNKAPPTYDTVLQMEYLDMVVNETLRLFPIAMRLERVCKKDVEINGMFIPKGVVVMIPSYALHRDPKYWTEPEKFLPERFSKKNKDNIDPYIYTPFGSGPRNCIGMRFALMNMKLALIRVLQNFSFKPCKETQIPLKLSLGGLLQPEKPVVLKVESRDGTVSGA

Cytochrome P450 2D6 = Cytochrome P450 2D6 (Homo sapiens, UniProt P10635); assay: qHTS Assay for Inhibitors and Substrates of Cytochrome P450 2D6. [Related pubchem assays: 410 ]; type: ADME; settings: read-out: Potency
Sequence of Cytochrome P450 2D6 (P10635 whole entry): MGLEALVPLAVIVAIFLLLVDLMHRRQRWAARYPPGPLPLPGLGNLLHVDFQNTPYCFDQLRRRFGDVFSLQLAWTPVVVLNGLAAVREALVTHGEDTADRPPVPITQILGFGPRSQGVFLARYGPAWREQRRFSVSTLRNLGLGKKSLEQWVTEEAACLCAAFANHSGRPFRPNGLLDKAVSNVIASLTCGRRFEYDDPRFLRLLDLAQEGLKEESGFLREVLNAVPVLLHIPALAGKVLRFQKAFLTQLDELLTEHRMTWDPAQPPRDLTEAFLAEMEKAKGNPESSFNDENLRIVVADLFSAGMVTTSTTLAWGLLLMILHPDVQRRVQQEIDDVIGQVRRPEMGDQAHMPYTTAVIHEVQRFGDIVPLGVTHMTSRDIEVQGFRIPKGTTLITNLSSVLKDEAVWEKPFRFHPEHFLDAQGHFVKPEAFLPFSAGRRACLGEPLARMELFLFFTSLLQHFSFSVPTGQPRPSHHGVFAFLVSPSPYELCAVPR

HeLa = assay: Cytotoxicity counterscreen assay for transcriptional activators of heat shock protein 70 (Hsp70). [Related pubchem assays: 1203, 1252 ]; type: functional; settings: Homo sapiens;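 also: cells exposed to compound for 16 hours before readout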
Estrogen receptor = target: T1, Estrogen receptor (Homo sapiens, UniProt P03372); assay: potentiators of ERα–SRC-1 coactivator binding, dose response, biochemical, TR-FRET, ERα LBD (AID 737)
T1 sequence (P03372 whole entry): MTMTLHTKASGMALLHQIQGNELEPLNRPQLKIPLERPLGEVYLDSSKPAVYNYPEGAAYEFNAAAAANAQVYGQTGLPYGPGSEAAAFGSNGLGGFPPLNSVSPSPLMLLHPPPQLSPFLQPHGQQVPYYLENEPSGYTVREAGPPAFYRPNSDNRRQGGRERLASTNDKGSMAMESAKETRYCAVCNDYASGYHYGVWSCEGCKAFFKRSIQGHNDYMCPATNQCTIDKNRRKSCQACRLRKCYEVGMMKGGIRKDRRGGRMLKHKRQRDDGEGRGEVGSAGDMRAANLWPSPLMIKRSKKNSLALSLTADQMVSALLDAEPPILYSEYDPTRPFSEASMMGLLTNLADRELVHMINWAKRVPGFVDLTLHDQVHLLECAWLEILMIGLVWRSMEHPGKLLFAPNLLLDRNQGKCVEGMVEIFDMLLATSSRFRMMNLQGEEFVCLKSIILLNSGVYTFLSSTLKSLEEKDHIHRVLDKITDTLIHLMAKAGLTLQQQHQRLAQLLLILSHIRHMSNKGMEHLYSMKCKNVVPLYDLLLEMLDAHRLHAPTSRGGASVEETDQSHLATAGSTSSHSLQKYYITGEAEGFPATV

[3] = system: Streptococcus sp. 'group A'; assay: growth inhibition of control SK(-) GAS strain, dose response, counter-screen for streptokinase expression inhibitor project, luminescence, kanamycin, BacTiterGlo, confirmation (AID 1900); type: functional, organism-based
Streptococcus = assay: Group A Streptococcus viability loss, dose response, counter-screen for streptokinase expression inhibitor project, luminescence, BacTiterGlo (AID 1915); type: functional, organism-based;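 also: potency for reduction of bacterial viability or growth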
Streptokinase A = target: T2, Streptokinase A (Streptococcus pyogenes serotype M1, UniProt P10520); assay: S. pyogenes streptokinase expression inhibitors, potency, dose response, plasminogen activation absorbance, OD405 (AID 1914); type: functional, Streptococcus pyogenes M1 GAS;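 also: secreted streptokinase activity via plasminogen activation per viability signal from cell pellet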
T2 sequence (P10520 whole entry): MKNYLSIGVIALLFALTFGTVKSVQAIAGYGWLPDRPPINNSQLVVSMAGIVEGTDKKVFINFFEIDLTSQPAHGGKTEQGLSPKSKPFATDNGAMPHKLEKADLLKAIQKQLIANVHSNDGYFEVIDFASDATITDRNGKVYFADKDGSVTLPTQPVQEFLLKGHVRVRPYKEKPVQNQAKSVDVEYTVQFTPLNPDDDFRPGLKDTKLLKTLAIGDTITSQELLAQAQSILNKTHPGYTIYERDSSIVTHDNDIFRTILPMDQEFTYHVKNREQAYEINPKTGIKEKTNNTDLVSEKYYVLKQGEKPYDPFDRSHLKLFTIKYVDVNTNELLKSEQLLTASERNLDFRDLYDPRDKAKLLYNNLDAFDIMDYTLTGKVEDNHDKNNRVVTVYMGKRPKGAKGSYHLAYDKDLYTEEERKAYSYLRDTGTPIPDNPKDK

[4] = target: Sphingosine 1-phosphate receptor 2 (Homo sapiens, UniProt O95136); assay: Dose Response Cell Based Assay for Agonists of the S1P2 Receptor of Purchased Analogues. [Related pubchem assays: 729, 843, 854, 736 ]; type: functional
Sequence of Sphingosine 1-phosphate receptor 2 (O95136 whole entry): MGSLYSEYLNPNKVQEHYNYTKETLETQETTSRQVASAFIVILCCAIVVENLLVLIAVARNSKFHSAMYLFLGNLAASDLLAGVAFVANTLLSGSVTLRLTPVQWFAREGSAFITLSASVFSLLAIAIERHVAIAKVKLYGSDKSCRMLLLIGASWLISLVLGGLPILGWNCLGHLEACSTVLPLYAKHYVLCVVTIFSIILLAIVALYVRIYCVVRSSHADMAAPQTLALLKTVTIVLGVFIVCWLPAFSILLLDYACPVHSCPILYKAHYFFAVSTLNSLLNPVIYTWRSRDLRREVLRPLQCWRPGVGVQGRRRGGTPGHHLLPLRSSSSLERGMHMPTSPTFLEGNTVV

[5] = inhibitors of firefly luciferase expression or activity, dose response, H4 neuroglioma cells, luminescence (AID 1990); type: functional, cell-based
[6] = inhibitors of SNCA 5'UTR-driven translation, confirmation, luminescence, H4 neuroglioblastoma cells, dose confirmation (AID 2454); type: functional, cell-based;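 also: H4 neuroglioblastoma cells carrying an alpha-synuclein 5'UTR luciferase reporter; potency for inhibition of the luciferase signal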
[7] = Luminescence Cell-Based Dose Response HTS to Identify Inhibitors of 5'UTR Stem-Loop Driven Prion Protein mRNA Translation in H4 Neuroglioblastoma Cells. [Related pubchem assays: 1827 (Project Summary), 1813 (Primary HTS)]; type: functional
cells = type: functional, cell-based
[8] = inhibitors of SNCA 5'UTR-driven reporter translation, confirmation, H4 neuroglioma cells, luminescence (AID 1988); type: functional, cell-based
[9] = cytotoxicity in HEK-293T cells, dose response, cytotoxicity control for BCR NF-kB inhibitor project, luminescence, B-cell screen hits (AID 489021); type: functional, cell-based;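 also: HEK-293T cells carrying an NF-kB luciferase reporter; cells exposed to compound for about 14 hours before viability readout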
[10] = luciferase reporter signal reduction – luminescence, H4-C neuroglioblastoma cells, dose response (AID 2458); type: functional, cell-based;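 also: H4 neuroglioblastoma cells stably carrying a luciferase reporter gene fusion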
[11] = Luminescence Cell-Based Dose-Confimation HTS to Identify Inhibitors of 5'UTR Stem-Loop Driven Alpha-Synuclein mRNA Translation in H4 Neuroglioblastoma Cells. [Related pubchem assays: 1827 (Project Summary), 1813 (Primary HTS)]; type: functional

COC(=O)c1c(C)n(-c2ccc(C)cc2)c2ccc(O)cc12
CC50 [1]: > 40 µM (active)

O=C(Nc1nnc(SCc2ccc(Cl)cc2Cl)s1)C1COc2ccccc2O1 (stereo not drawn)
IC50 [2]: 49 µM (active)

CC12C=C(/C=C/c3ccc(C(F)(F)F)cc3)C(C)(C1)C(c1ccc(C(F)(F)F)cc1)CC2=O (stereo not drawn)
AC50 (Cytochrome P450 3A4): 3.98 µM (inconclusive)
AC50 (Cytochrome P450 2D6): 6.31 µM (inconclusive)

N#Cc1ccc(NC(=O)c2nc(-c3ccccc3)n(-c3ccccc3)n2)cc1
CC50 (HeLa): > 99 µM (not active)

Cn1nnnc1SCC(=O)Nc1nc(-c2ccccc2)c(-c2ccccc2)o1
EC50 (Estrogen receptor): 22.2 µM (active)
EC50 [3]: 12.7 µM (active)
EC50 (Streptococcus): 26 µM (active)
EC50 (Streptokinase A): > 150 µM (not active)

CCOC(=O)c1cc(C)n(Cc2ccccc2)c1C
EC50 [4]: > 30 µM (not active)

Nc1ccc(-c2cc3ccccc3oc2=O)cc1
EC50 [5]: < 0.1 µM (active)
EC50 [6]: 0.156 µM (active)
EC50 [7]: < 0.1 µM (active)
EC50 (cells): 0.215 µM (active)
EC50 [8]: < 0.1 µM (active)
IC50 [9]: > 80 µM (inactive)
EC50 [10]: 0.125 µM (active)

COc1ccc(C)cc1-n1nnnc1SCc1nc(N)nc(N(C)C)n1
EC50 [11]: 20.5 µM (active)
